Patent US20020068712A1, “Use of decreasing levels of functional transient receptor potential gene product” (priority 1999, published 2002)

Tests used:
Assay type in all cases: cell-based, rat
RPAECs [1] = assay: Whole cell patch clamp determination of store-operated Ca2+ entry
Description: Whole cell patch clamp was utilized to measure transmembrane ion flux in thapsigargin-stimulated RPAECs. Confluent RPAECs were enzyme dispersed, seeded onto 35-mm plastic culture dishes, and then allowed to reattach for at least 24 h before patch-clamp experiments were performed. […] These cells were chosen for study because their morphology was consistent with RPAECs from a confluent monolayer. The extracellular and pipette solutions were composed of the following (in mM): 1) extracellular: 110 tetraethylammonium aspartate, 10 calcium aspartate, 10 HEPES, and 0.5 3,4-diaminopyridine; and 2) pipette: 130 N-mehyl-D-glucamine, 1.15 EGTA, 10 HEPES, 1 Ca(OH)2, and 2 Mg^2+-ATP. Both solutions were adjusted to 290-300 mosM with sucrose and pH 7.4 with methane sulfonic acid, and [Ca^2+]i was estimated as 100 nM (10). The pipette resistance was 2-5 MΩ. Data were obtained with a HEKA EPC9 amplifier (Lambrecht/Pfaltz) and sampled on-line with Pulse+Pulsefit software (HEKA). All recordings were made at room temperature (22° C.). To generate current-voltage (I-V) relationships, voltage pulses were applied from −100 to +100 mV in 20-mV increments, with a 200-ms duration during each voltage step and a 2-s interval between steps. The holding potential between each step was 0 mV.

RPAECs [2] = assay: [Ca2+]i measurement by fura 2 fluorescence
Description: RPAECs were seeded onto chambered glass coverslips (Nalge Nunc, Naperville, Ill.) and grown to confluence. [Ca^2+]i was estimated with the Ca^2+-sensitive fluorophore fura 2-AM (Molecular Probes, Eugene, Oreg.) according to methods previously described by our laboratory (38). Because this is the first report of [Ca^2+]i measurements in cultured RPAECS, a summary of the technique will be presented. RPAECs were washed with 2 ml of a HEPES (Fisher Scientific, Atlanta, Ga.)-buffered physiological salt solution (PSS) containing (in g/l) 6.9 NaCl, 0.35 KCl, 0.16 KH2PO4, 0.141 MgSO4, 2.0 D-glucose, and 2.1 NaHCO3. The loading solution (1 ml) consisted of PSS plus 3 μM fura 2-AM, 3 μl of a 10% pluronic acid solution, and 2 mM or 100 nM CaCl2. RPAECs were fura loaded for 20 min in a CO2 incubator at 37° C. After this loading period, the cells were again washed with PSS (2 ml) and treated with deesterification medium (PSS+2 mM or 100 nM CaCl2) for an additional 20 min. After deesterification, [Ca^2+]i was assessed with an Olympus 1×70 inverted microscope at ×400 with a xenon arc lamp photomultiplier system (Photon Technologies, Monmouth Junction, N.J.), and data were acquired and analyzed with PTI Felix software. Epifluorescence (signal averaged) was measured from three to four endothelial cells in a confluent monolayer, and the changes in [Ca^2+]i are expressed as the fluorescence ratio of the Ca^2+-bound (340-nm) to Ca^2+-unbound (380-nm) excitation wavelengths emitted at 510 nm.

RPAECs [3] = assay: Assessment of endothelial cell shape change (scanning electron micrographs)
Description: were seeded onto 35-mm plastic culture dishes and grown to confluence. Growth medium was replaced with experimental buffer (same as that used for [Ca^2+]i measurements but without fura 2), and the cells were subjected to one of the following protocols: 1) vehicle control (5 min) in 2 mM or 100 nM extracellular Ca^2+ concentration ([Ca^2+]o); 2) thapsigargin (1 μM, 5 min) in 2 mM or 100 nM ([Ca^2+]o; or 3) thapsigargin in 100 nM [Ca^2+]o+readdition of 2 mM CaCl2 (5 min). At the end of each experiment, the cell monolayers were fixed in 3% gluteraldehyde-PBS for 2 h. The cells were washed two times with 0.1 M cacodylate buffer, dehydrated by immersion in a series of ethanol dilutions, critical point dried in CO2, and covered with 20 nm of gold. Specimens were viewed at […] at a 15° inclination. Scanning electron micrographs were taken of representative areas in the monolayer by a pathologist blinded to the experimental protocols.

RPAECs [4] = assay: Assessment of filamentous actin arrangement (confocal microscopy)
Description: Experiments to determine filamentous actin (F-actin) arrangement were conducted in parallel with those assessing endothelial cell shape. […] were seeded onto glass coverslips, and F-actin was stained with Oregon Green-phalloidin (Molecular Probes) with a standard fixation and staining protocol. Cells were analyzed by confocal microscopy (excitation at 496 nm and emmision at 520 nm). Micrographs were taken at multiple cellular depths (0.3-μm steps, 13-15 sections) and were used to deduce the microfilamentous cytoskeleton configurations of the cells.

[5] = thapsigargin-stimulated current, data not shown
[6] = thapsigargin in 100 nM [Ca2+]o, then readdition of 2 mM [Ca2+]o

SMILES	effect on inward current at negative voltages (RPAECs [1]; [5])	effect on outward current at positive voltages (RPAECs [1]; [5])	[Ca2+]i response (fura 2 340/380 fluorescence ratio) (RPAECs [2]; thapsigargin 1 μM, 2 mM [Ca2+]o)	[Ca2+]i response after readdition of [Ca2+]o (RPAECs [2]; [6])	peak and sustained plateau phases of [Ca2+]i response (RPAECs [2]; thapsigargin, 100 nM [Ca2+]o)	net inward current stimulated (RPAECs [1]; 1 μM thapsigargin in pipette, at −80 mV) [pA/pF]	slope conductance (RPAECs [1]; 1 μM thapsigargin in pipette, calculated from −100 to −20 mV without respect to cell capacitance) [nS]	effect on I-V curve (RPAECs [1]; 1 μM thapsigargin in pipette, whole cell, 3-5 min)	endothelial cell shape / intercellular gaps (RPAECs [3]; thapsigargin 1 μM, 5 min, 100 nM [Ca2+]o)	endothelial cell shape / intercellular gaps (RPAECs [3]; thapsigargin 1 μM, 5 min, 2 mM [Ca2+]o)	endothelial cell shape / intercellular gaps (RPAECs [3]; [6])	F-actin arrangement (RPAECs [4]; thapsigargin in low [Ca2+]o, then readdition of 2 mM [Ca2+]o)	F-actin arrangement (RPAECs [4]; thapsigargin, 2 mM [Ca2+]o)	F-actin arrangement (RPAECs [4]; thapsigargin, low (100 nM) [Ca2+]o, compared with low [Ca2+]o alone)
O=C(O)c1ccccc1Nc1ccccc1 [N-phenylanthranilic acid]	little effect	strongly attenuated	–	–	–	–	–	–	–	–	–	–	–	–
C/C=C(/C)C(=O)O[C@H]1C(C)=C2[C@H]([C@@H]1OC(=O)CCCCCCC)[C@@](C)(OC(C)=O)C[C@H](OC(=O)CCC)[C@@]1(O)[C@H]2OC(=O)[C@@]1(C)O [Thapsigargin, thapsigargin]	–	–	gradual increase in [Ca^2+]i to a peak level followed by a modest decline	immediate increase in [Ca^2+]i	significantly attenuated	5.45±0.90	1.64	right shifted the I-V curve and increased the current magnitude	little change in morphology and a lack of interendothelial gaps	endothelial cell retraction and intercellular gap formation	pronounced cell retraction and gap formation	appearance of dense, transcellular fibers and a decrease in peripheral F-actin staining	a decrease in peripheral F-actin density and an increase in the number and/or density of central transcellular F-actin filaments	only modest changes in F-actin arrangements
